Molecules are shown by their SMILES.

The target of the test is T1, human H3R (histamine receptor 3) (Homo sapiens, UniProt Q9Y5N1).
T1 construct: gene HRH3; human H3R fused via TEV protease site to Gal4-VP16 transcription factor; stably expressed in H3-bla U2OS cells (Invitrogen) with beta-arrestin/TEV protease fusion and UAS beta-lactamase reporter
Nature of the test: beta-arrestin/TEV beta-lactamase FRET reporter assay, antagonist mode. In kind it is cell-based. The following applies: read-out: Inhibit rate (%) at 10 μM. From the text: beta-arrestin/TEV beta-lactamase FRET reporter assay, antagonist mode on human H3R (histamine receptor 3)

T1 sequence (Q9Y5N1 whole entry, the tested form may be a part): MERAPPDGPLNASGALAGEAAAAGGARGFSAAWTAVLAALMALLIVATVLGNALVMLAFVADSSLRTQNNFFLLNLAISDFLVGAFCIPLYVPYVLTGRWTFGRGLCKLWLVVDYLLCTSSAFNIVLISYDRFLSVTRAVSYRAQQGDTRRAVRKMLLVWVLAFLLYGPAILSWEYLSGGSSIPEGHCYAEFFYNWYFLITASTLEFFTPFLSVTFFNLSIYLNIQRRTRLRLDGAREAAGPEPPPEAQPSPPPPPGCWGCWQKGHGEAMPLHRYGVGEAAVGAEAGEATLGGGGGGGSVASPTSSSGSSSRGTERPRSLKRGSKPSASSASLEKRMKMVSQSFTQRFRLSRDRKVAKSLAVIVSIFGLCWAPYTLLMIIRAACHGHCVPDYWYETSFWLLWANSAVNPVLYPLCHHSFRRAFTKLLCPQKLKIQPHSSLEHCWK

As for `COc1ccc(-c2coc3c(CN4CCCC4)c(O)ccc3c2=O)cc1` [2m, 7-hydroxy-3-(4-methoxyphenyl)-8-(pyrrolidin-1-ylmethyl)-4H-chromen-4-one], the inhibition at 10 µM was 14.6%.
The value for `O=c1c(-c2ccc(O)cc2)coc2c(CN3CCCC3)c(O)ccc12` [2f, 7-hydroxy-3-(4-hydroxyphenyl)-8-(pyrrolidin-1-ylmethyl)-4H-chromen-4-one] was 18.7%.

(Values after publication PMC6179058, “Design, synthesis, and biological evaluation of novel iso-flavones derivatives as H3R antagonists” (Journal of Enzyme Inhibition and Medicinal Chemistry, 2018).)
